Values of other authors as cited in PubChem BioAssay AID1259409 (Chemical Carcinogenesis Research Information System (CCRIS), 2018).

Tested on: rodent chemically induced tumor inhibition, incidence and multiplicity
Experiment: CCRIS tumor inhibitor studies
Details: Dose [Inhibitor]: 0, Dose [Inhibitor]: 0, Species: RAT; for outcome: Carcinogen: DIETHYLNITROSAMINE [55-18-5], 0.005, 0.5, 500 PPM FOR 11 OR 43 WKS BEGINNING 1 WK AFTER CARCINOGEN (STUDY DURATION: 45 WKS), Route [Inhibitor]: DIET, Strain/Sex: F344/MALE, Dose [Carcinogen]: 100 MG/KG BW TWICE AT 1 WK INTERVALS (STUDY DURATION: 45 WKS); for tumour outcome (control, treated, inhibition, significance): 7.5 MG 2/WK FOR 14 WK BEGINNING SIMULTANEOUSLY WITH CARCINOGEN TREATMENT (STUDY DURATION: 1 YR), Route [Inhibitor]: GAVAGE, Strain/Sex: WISTAR/MALE, Dose [Carcinogen]: 50 UG 2/WK FOR WK 1-4 OF STUDY THEN 75 UG 2/WK FOR WK 5-8, Promoter: NONE USED

In the case of Clc1ccc(C(c2ccc(Cl)cc2)C(Cl)(Cl)Cl)cc1, the outcome (Target Tissue: Type of Lesion: LIVER: HEPATOCELLULAR ADENOMA) is given as 55%; 65%, -18%; 50%, 9%; 100%, -82%, the outcome (Target Tissue: Type of Lesion: LIVER: HEPATOCELLULAR CARCINOMA) is given as 60%; 30%, 50%; 65%, -8%; 100%, -67% and the “tumour outcome (control, treated, inhibition, significance)” value (Target Tissue: Type of Lesion: LIVER: BENIGN TUMORS) is given as 22/25 (88%), 9/21 (43%), 51%, p<0.001. For the same molecule, the “tumour outcome (control, treated, inhibition, significance)” value (Target Tissue: Type of Lesion: LIVER: CARCINOMA) was 14/25 (56%), 7/21 (33%), 41%, p<0.07.
